Reference: patent publication US7081447B2, “Organic compounds with biological activity as thrombin inhibitors and use thereof” (Novel Science International GmbH, priority 2001, dated 2006)

What was measured:
[1] = molecular target: T1, thrombin (Homo sapiens, UniProt P00734); conditions: cited from earlier work
[2] = molecular target: T1, thrombin; assay: in vitro inhibition of thrombin amidase activity (fluorogenic substrate Tos-Gly-Pro-Arg-(7-amino-4-methylcoumarin)); type: biochemical; design: with 10 μL of human thrombin solution
Description: (§1) The values of the inhibition constant Ki were obtained from assays, in which thrombin hydrolyzes the fluorogenic substrate Tos-Gly-Pro-Arg-(7-amino-4-methylcoumarin). The assays were performed in 30 μL of assay buffer (0.05 M Tris, 0.1 M NaCl, 0.1% PEG 8000, pH 7.6) with 10 μL of human thrombin solution (10^−5 U/μL in assay buffer) and 140 μL of a solution of the fluorogenic substrate in assay buffer at a concentration v of 30 μM. Solutions of the test compound (10 μL) were added at various concentrations. The rates of substrate hydrolysis were measured by monitoring the reactions of 7-amino-4-methylcoumarin release at 460 nm with use of AMC. The reaction reached a steady state within 3 minutes after thrombin was combined with the substrate and an inhibitor. The kinetic data of the competitive inhibition (Km, Vmax, and Ki) were analyzed with the aid of the Hanes plot (A/V vs. A at various i values).
as §1, with “concentration” for “concentration v”, “using” for “with the aid of”, “values for A; here, A is the substrate concentration and V the reaction rate).” for “i values).”
as §1, with “conducted” for “performed”, “concentration” for “concentration v”, “using” for “with the aid of”, “values for A; here, A is the substrate concentration and V the reaction rate).” for “i values).”

[3] = peptide concentration of 250 nM
[4] = peptide concentration of 1 μM, 1 µM

Thrombin inhibition (thrombin amidase activity) ([2]; peptide concentration of 1 μM)	Thrombin inhibition (thrombin amidase activity) [2, 4]	Substance	other results
		H-D-Phe-Pro-Arg-H	Ki [1]: 70 nM
63%		N-Acetyl-L-Trp-L-Cha-D-Pro-D-Tyr-L-Arg amide [Example 33]	
53%		N-Acetyl-D-Lys-D-Pro-L-Cha-D-Pro-D-Tyr-L-Arg amide [Example 14]	
		N-Acetyl-L-Ppd-D-Cha-L-Aze-D-Tyr-L-Har amide [Example 81]	Thrombin inhibition (thrombin amidase activity) [2, 3]: 76%
	47%	N-Acetyl-L-Arg-L-Cha-D-Pro-D-Tyr-L-Arg amide [Example 38]	
		N-Acetyl-L-Iq3-D-Cha-L-Aze-D-Tyr-L-Har amide [Example 80]	Thrombin inhibition (thrombin amidase activity) [2, 3]: 72%
51%		N-Acetyl-D-Val-D-His-L-Cha-D-Pro-D-Tyr-L-Arg amide [Example 27]	
31%		N-Acetyl-L-Ser-L-Cha-D-Pro-D-Tyr-L-Arg amide [Example 22]	
	49%	N-Acetyl-L-Ser-L-Ser-L-Cha-D-Pro-D-Tyr-L-Arg amide [Example 13]	
83%		N-Acetyl-L-Ala-D-Cha-L-Aze-D-Tyr-L-Har amide [Example 57]	
	45%	N-Acetyl-D-Val-L-Cha-D-Pro-D-Tyr-L-Arg amide [Example 47]	
	45%	N-Acetyl-D-Val-L-Cha-D-Pro-D-Tyr-L-Arg amide [Example 65]	
	51%	N-Acetyl-L-Ser-L-Arg-L-Cha-D-Pro-D-Tyr-L-Arg amide [Example 35]	
44%		N-Acetyl-L-Ala-L-Cha-D-Pro-D-Tyr-L-Arg amide [Example 28]	
		N-Acetyl-L-Dcp-D-Cha-L-Aze-D-Tyr-L-Har amide [Example 78]	Thrombin inhibition (thrombin amidase activity) [2, 3]: 75%
	51%	N-Acetyl-L-Tyr-L-Cit-L-Cha-D-Pro-D-Tyr-L-Arg amide [Example 15]	
	48%	N-Acetyl-D-Lys-L-Nle-L-Cha-D-Pro-D-Tyr-L-Arg amide [Example 69]	
		N-Acetyl-L-Nle-D-Cha-L-Aze-D-Tyr-L-Har amide [Example 84]	Thrombin inhibition (thrombin amidase activity) [2, 3]: 89%
21%		N-Acetyl-L-Ser-D-Glu-L-Cha-D-Pro-D-Tyr-L-Arg amide [Example 23]	

Substance	Thrombin inhibition (thrombin amidase activity) ([2]; peptide concentration of 1 μM)	Thrombin inhibition (thrombin amidase activity) [2, 4]	other results
N-Acetyl-D-Gln-D-His-L-Cha-D-Pro-D-Tyr-L-Arg amide [Example 25]	59%		
